Source: ChEMBL document CHEMBL6115031, “Structure-Based Optimization of Moracin M as Potent and Selective PDE4 Inhibitors with Antipsoriasis Effects” (J Med Chem, 2025)
pIC50: −log10 of the molar value. Active and inactive are the calls of the source. The calls are words filed in the database; no cut-off is given here.

How the values were obtained:
HaCaT [1] = experiment: Anti-psoriasis activity in M5-stimulated human HaCaT cells assessed as restoration of cAMP level at 20 uM incubated for 2 hrs by competitive ELISA; format: functional, cell-based
Mus musculus [2] = experiment: Anti-inflammatory activity in IMQ-induced psoriasis in female BALB/c mouse assessed as reduction in IL-17 mRNA level at 20 mg/kg administered topically as 0.3 % ointment pretreated with IMQ for 6 hrs followed by compound addition once daily for 7 days by q-PCR analysis; format: functional, organism-based; conditions: time 7.0 day
Mus musculus [3] = experiment: Anti-psoriasis effect in IMQ-induced female BALB/c mouse assessed as decrease in skin scales at 20 mg/kg administered topically as 0.3 % ointment pretreated with IMQ for 6 hrs followed by compound addition once daily for 7 days; format: functional, organism-based; conditions: time 7.0 day
[4] = target: 3',5'-cyclic-AMP phosphodiesterase 4C (Homo sapiens, UniProt Q08493); experiment: Inhibition of PDE4C1 (314 to 639 residues) (unknown origin) extracted from Escherichia coli BL21 cells using 3H-cAMP/3H-cGMP as substrate preincubated with compound for 15 mins followed by substrate addition by liquid scintillation counter
HaCaT [5] = experiment: Anti-psoriasis effect in M5-stimulated human HaCaT cells assessed as inhibition of cell proliferation at 20 uM pretreated with M5 followed by compound addition and measured after 24 hrs; format: functional, cell-based
Mus musculus [6] = experiment: Anti-inflammatory activity in IMQ-induced psoriasis in female BALB/c mouse assessed as reduction in TNF-alpha mRNA level at 20 mg/kg administered topically as 0.3 % ointment pretreated with IMQ for 6 hrs followed by compound addition once daily for 7 days by q-PCR analysis; format: functional, organism-based; conditions: time 7.0 day
HaCaT [7] = experiment: Anti-psoriasis effect in M5-stimulated human HaCaT cells assessed as decrease in K6 protein expression at 20 uM pretreated with M5 followed by compound addition and measured after 24 hrs by Western blotting analysis; format: functional, cell-based
[8] = target: 3',5'-cyclic-AMP phosphodiesterase 4D (Homo sapiens, UniProt Q08499); experiment: Inhibition of human PDE4D2 (86 to 413 residues) extracted from Escherichia coli BL21 cells using 3H-cAMP/3H-cGMP as substrate preincubated with compound for 15 mins followed by substrate addition by liquid scintillation counter
[9] = target: cAMP and cAMP-inhibited cGMP 3',5'-cyclic phosphodiesterase 10A (Homo sapiens, UniProt Q9Y233); experiment: Inhibition of PDE10A2 (449 to 770 residues) (unknown origin) extracted from Escherichia coli BL21 cells using 3H-cAMP/3H-cGMP as substrate preincubated with compound for 15 mins followed by substrate addition by liquid scintillation counter
HaCaT [10] = experiment: Anti-psoriasis effect in M5-stimulated human HaCaT cells assessed as decrease in K17 protein expression at 20 uM pretreated with M5 followed by compound addition and measured after 24 hrs by Western blotting analysis; format: functional, cell-based
RAW264.7 [11] = experiment: Anti-inflammatory activity in LPS-stimulated mouse RAW264.7 cells assessed as reduction in TNF-alpha mRNA level pretreated with compound for 2 hrs followed by LPS stimulation and measured after 6 hrs by q-PCR analysis; format: functional, cell-based; conditions: dose 5-20 µM, time 8.0 hrs
Mus musculus [12] = experiment: Anti-psoriasis effect in IMQ-induced female BALB/c mouse assessed as change in size of spleen at 20 mg/kg administered topically as 0.3 % ointment pretreated with IMQ for 6 hrs followed by compound addition once daily for 7 days by H and E staining based analysis; format: functional, organism-based; conditions: time 7.0 day
Mus musculus [13] = experiment: Anti-psoriasis effect in IMQ-induced female BALB/c mouse model assessed as reduced bleeding in dermal papilla layers at 20 mg/kg administered topically as 0.3 % ointment pretreated with IMQ for 6 hrs followed by compound addition once daily for 7 days by H and E staining based analysis; format: functional, organism-based; conditions: time 7.0 day
HaCaT [14] = experiment: Anti-psoriasis effect in M5-stimulated human HaCaT cells assessed as upregulation of K10 protein expression at 20 uM pretreated with M5 followed by compound addition and measured after 24 hrs by Western blotting analysis; format: functional, cell-based
Mus musculus [15] = experiment: Anti-psoriasis effect in IMQ-induced female BALB/c mouse assessed as change in body weight at 20 mg/kg administered topically as 0.3 % ointment pretreated with IMQ for 6 hrs followed by compound addition once daily for 7 days; format: functional, organism-based; conditions: time 7.0 day
HaCaT [16] = experiment: Anti-inflammatory activity in M5- stimulated human HaCaT cells assessed as reduction in TNF-alpha mRNA level incubated for 24 hrs by q-PCR analysis; format: functional, cell-based; conditions: dose 5-20 µM
RAW264.7 [17] = experiment: Cytotoxicity against mouse RAW264.7 cells assessed as reduction in cell viability at 5 to 80 uM incubated for 24 hrs by CCK-8 assay; format: toxicity, cell-based; conditions: raw264.7, 24 h, dose 5-80 µM
Mus musculus [18] = experiment: Anti-psoriasis effect in IMQ-induced female BALB/c mouse assessed as reduction in skin thickness at 20 mg/kg administered topically as 0.3 % ointment pretreated with IMQ for 6 hrs followed by compound addition once daily for 7 days; format: functional, organism-based; conditions: time 7.0 day
Mus musculus [19] = experiment: Anti-inflammatory activity in IMQ-induced psoriasis in female BALB/c mouse assessed as reduction in IL-6 mRNA level at 20 mg/kg administered topically as 0.3 % ointment pretreated with IMQ for 6 hrs followed by compound addition once daily for 7 days by q-PCR analysis; format: functional, organism-based; conditions: time 7.0 day

Sequence of 3',5'-cyclic-AMP phosphodiesterase 4C (Q08493 whole entry, the tested form may be a part): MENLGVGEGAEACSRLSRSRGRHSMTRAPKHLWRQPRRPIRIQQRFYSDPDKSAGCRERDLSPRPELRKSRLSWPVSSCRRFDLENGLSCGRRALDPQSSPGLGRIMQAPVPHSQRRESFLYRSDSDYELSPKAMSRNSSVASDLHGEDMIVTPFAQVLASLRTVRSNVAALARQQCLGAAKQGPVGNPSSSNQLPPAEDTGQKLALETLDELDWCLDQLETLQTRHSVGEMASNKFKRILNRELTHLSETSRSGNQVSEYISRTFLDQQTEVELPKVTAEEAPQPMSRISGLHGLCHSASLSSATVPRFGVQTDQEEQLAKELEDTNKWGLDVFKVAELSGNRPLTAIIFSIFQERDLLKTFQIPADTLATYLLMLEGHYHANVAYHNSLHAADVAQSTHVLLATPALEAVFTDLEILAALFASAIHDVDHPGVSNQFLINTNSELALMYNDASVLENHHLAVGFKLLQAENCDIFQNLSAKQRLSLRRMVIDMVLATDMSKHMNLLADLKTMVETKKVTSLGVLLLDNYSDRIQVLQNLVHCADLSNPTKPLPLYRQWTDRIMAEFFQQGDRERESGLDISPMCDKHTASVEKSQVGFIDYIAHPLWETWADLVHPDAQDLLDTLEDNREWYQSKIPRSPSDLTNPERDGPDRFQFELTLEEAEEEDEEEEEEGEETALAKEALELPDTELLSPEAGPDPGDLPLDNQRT
Sequence of 3',5'-cyclic-AMP phosphodiesterase 4D (Q08499 whole entry, the tested form may be a part): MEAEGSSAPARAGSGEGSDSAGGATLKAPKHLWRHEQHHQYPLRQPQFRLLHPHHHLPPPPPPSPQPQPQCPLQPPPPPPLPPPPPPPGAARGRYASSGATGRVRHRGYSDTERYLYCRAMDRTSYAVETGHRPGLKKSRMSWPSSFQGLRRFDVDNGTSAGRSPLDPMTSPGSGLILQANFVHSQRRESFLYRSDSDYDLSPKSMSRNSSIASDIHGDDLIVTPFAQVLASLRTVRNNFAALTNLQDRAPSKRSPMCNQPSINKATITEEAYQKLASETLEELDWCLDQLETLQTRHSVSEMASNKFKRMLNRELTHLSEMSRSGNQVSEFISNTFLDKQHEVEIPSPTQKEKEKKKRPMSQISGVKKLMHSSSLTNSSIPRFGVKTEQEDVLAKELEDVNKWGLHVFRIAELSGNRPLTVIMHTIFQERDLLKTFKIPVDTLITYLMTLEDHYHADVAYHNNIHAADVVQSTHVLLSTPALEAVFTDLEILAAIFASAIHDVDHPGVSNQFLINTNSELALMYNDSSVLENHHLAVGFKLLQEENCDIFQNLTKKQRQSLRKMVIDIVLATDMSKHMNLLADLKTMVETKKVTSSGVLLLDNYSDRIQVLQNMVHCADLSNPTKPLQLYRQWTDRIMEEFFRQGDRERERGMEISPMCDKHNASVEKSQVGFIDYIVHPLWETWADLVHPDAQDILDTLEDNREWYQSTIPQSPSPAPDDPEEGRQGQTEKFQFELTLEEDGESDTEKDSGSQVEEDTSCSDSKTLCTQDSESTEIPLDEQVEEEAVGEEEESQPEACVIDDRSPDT
Sequence of cAMP and cAMP-inhibited cGMP 3',5'-cyclic phosphodiesterase 10A (Q9Y233 whole entry, the tested form may be a part): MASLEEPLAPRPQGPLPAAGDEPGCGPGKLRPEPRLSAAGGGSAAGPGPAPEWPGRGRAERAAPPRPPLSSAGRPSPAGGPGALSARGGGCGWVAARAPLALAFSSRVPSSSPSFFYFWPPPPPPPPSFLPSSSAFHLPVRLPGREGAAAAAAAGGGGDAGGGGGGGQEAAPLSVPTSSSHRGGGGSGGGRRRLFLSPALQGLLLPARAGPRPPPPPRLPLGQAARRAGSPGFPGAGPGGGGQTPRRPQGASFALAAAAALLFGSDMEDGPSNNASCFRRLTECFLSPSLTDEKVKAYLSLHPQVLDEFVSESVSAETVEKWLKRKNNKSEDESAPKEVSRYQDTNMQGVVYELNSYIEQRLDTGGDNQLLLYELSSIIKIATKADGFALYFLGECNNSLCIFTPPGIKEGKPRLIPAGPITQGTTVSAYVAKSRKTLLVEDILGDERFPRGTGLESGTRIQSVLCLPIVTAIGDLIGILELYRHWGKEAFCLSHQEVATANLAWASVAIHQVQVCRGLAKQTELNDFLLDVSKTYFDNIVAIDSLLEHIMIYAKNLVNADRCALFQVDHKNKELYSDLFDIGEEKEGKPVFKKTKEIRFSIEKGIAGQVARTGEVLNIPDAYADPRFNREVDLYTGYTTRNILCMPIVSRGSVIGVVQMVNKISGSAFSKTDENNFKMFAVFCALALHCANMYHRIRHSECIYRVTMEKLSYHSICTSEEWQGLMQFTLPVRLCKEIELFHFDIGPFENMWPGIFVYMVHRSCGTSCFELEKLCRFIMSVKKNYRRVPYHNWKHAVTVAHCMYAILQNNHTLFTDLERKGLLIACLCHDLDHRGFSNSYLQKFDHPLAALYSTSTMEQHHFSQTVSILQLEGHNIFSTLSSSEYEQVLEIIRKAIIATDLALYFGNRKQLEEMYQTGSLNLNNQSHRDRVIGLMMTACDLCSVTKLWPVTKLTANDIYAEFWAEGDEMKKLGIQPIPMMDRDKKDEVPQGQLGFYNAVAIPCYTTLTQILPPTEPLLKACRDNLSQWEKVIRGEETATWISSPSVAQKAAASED

COC(=O)[C@H]1C[C@@H](Oc2c(O)ccc3cc(-c4ccc(OC(F)F)c(OCC5CC5)c4)oc23)CN1
Activity (HaCaT [1]): Active | Activity (Mus musculus [2]): Active | Activity (Mus musculus [3]): Active | pIC50 [4]: 6.13 | Activity (HaCaT [5]): Active | Activity (Mus musculus [6]): Active | Activity (HaCaT [7]): Active | pIC50 [8]: 8.07 | pIC50 [9]: 5.71 | Activity (HaCaT [10]): Active | Activity (RAW264.7 [11]): Dose-dependent-effect | Activity (Mus musculus [12]): Active | Activity (Mus musculus [13]): Active | Activity (HaCaT [14]): Active | Activity (Mus musculus [15]): Active | Activity (HaCaT [16]): Dose-dependent-effect | Activity (RAW264.7 [17]): Non-toxic | Activity (Mus musculus [18]): Active | Activity (Mus musculus [19]): Active
